Assay results as given in patent US20160050932A1, “SYNERGISTIC COMBINATION OF A CHLOROTOLURON COMPOUND AND TERBUTRYN FOR DRY FILM PROTECTION” (Rohm and Haas Company, priority 2013, published 2016).

Experiments:
[1] = system: Chlorella sp. ATCC 7516; experiment: Algal efficacy testing of dry paint films (modified ASTM 5589, 6-well plates); format: cell-based; conditions: 3 weeks; for % inhibition: at the listed total conc, versus blank sample; for Total conc (lowest concentration passing, pass level ≧75% inhibition): total biocide in acrylic/silicone paint, dry film on filter paper
Protocol: (§1) Slurries containing 33% antimicrobial active ingredient (chlorotoluron) and 45% antimicrobial ingredient terbutryn were post added to a white, acrylic/silicone based outdoor paint free of biocides to give a total active ingredient concentration of 10000 and 1000 ppm respectively. These paints were then diluted with an antimicrobial free acrylic/silicone based paint and mixed to prepare targeted concentrations of antimicrobial compounds for the testing. The total biocides concentrations tested were 125, 250, 500, 1000, 2000 and 5000 ppm. After biocides addition or dilution, the paints were mixed 90 seconds with the horse power shaker (AXEL 75M3372/Agitateur SO-10MI) until uniformity was achieved. Paints containing different antimicrobial compounds at the same levels were mixed together in order to obtain the desired ratio of antimicrobial compounds. After one day, the paints were applied to Schleicher & Schuell filter paper at 280 μm wet film thickness and dried for 3 days at room temperature avoiding direct exposure to sunlight. Square discs (1.6 cm×1.6 cm) were cut out from each panel and were used as the substrate for algal efficacy tests. This sample size allowed for an agar border when the sample disc was placed into the well of the test plate.
(§2) Algal efficacy was tested according to modified ASTM 5589 which is a standard accelerated test method for determining resistance of various coatings (including paints) to algal defacement. To accommodate for high-throughput screening, this method was scaled down from petri dishes to 6-well plates. Bold Modified Basal Freshwater Nutrient Solution was used as growth medium. A single coated filter paper coupon was placed with a pair of sterile forceps at the center of the agar plug (on top) with the painted surface facing upwards. Algal inoculums were prepared by mixing equal concentrations (1×10^6 cfu/ml) and equal volumes of exponentially growing algae cultures.
(§3) Each well that contains a tested coupon was inoculated with 1750 μl of algal suspensions (1×10^6 cfu/ml) making sure that the whole surface (paint film as well as the agar surrounding it) was evenly covered. The plates were incubated at room temp (21° C.-25° C.) with cyclic exposure to light and dark phases, for a period of three weeks. The total area inhibited was evaluated at the end of each week according to percent area covered in 5% increments
(§4) At the end of the three week incubation period, the samples were scored for percent inhibition regarding color intensity compared to the blank sample.
(§5) The SI is calculated based on F. C. Kull et.
(§6) SI value of <1 in the formula indicates a synergism of the blended biocides exists.
(§7) The minimal targeted inhibition was set at 75%, meaning a coupon with at least 75% algal growth inhibition was considered as a pass.

[2] = system: Stichococcus bacillaris SAG 379-1a / CCAP 379/1a; experiment: as above; format: cell-based; conditions: 3 weeks; for % inhibition: at the listed total conc, versus blank sample; for Total conc (lowest concentration passing, pass level ≧75% inhibition): total biocide in acrylic/silicone paint, dry film on filter paper
Protocol: as §1, §2, §3, §4, §5, §6, §7

SMILES: Cc1ccc(NC(=O)N(C)C)cc1Cl [Chlorotoluron, N′-(3-chloro-4-methylphenyl)-N,N-dimethylurea]
- % inhibition [1]: 100%
- Total conc (lowest concentration passing, pass level ≧75% inhibition) [1]: 1000 ppm
- % inhibition [2]: 90%
- Total conc (lowest concentration passing, pass level ≧75% inhibition) [2]: 500 ppm

SMILES: CCNc1nc(NC(C)(C)C)nc(SC)n1 [Terbutryn, N^2-tert-butyl-N^4-ethyl-6-methylthio-1,3,5-triazine-2,4-diamine]
- % inhibition [1]: 90%
- Total conc (lowest concentration passing, pass level ≧75% inhibition) [1]: 500 ppm
- % inhibition [2]: 80%
- Total conc (lowest concentration passing, pass level ≧75% inhibition) [2]: 2000 ppm
